The values that follow come from ChEMBL document CHEMBL1909514, “Imidazo[2,1-b]thiazole guanylhydrazones as RSK2 inhibitors” (Eur J Med Chem, 2011).

The structures appear in SMILES notation.

Type in all cases: functional
Test [1] deals with A549. As to the kind of experiment: Growth inhibition of human A549 cells after 48 hrs by SRB assay. The settings on record: A549, 48 h.
For test [2], the system named is T47D. As to the kind of experiment: Growth inhibition of human T47D cells after 48 hrs by SRB assay.
Test [3] concerns EKVX. Briefly: Growth inhibition of human EKVX cells after 48 hrs by SRB assay.
The mark [4] stands for this setting: read-out: pLC50 (the source's name) (converted).

On to `N=C(N)N/N=C\c1c(-c2ccc([N+](=O)[O-])cc2)nc2sc(Br)cn12`, for which the concentration for 50% growth inhibition (GI50) in test [1] is 182 nM; in test [2], 170 nM; in test [3], 1070 nM. Also, the CC50 in test [1] (setting [4]) is 6.61 µM; in test [3] (setting [4]) it was 7.41 µM. Besides, the TGI in test [1] (read-out: pTGI (converted)) was 347 nM; in test [2] (read-out: pTGI (converted)), 3.63 µM; in test [3] (read-out: pTGI (converted)), 4.47 µM.
